# Assay results: patent publication US20230123334A1, “AMINO LIPID COMPOUND, PREPARATION METHOD THEREFOR, AND APPLICATION THEREOF” (SHENZHEN SHENXIN BIOTECHNOLOGY CO., LTD., priority 2020, published 2023)
# Test system: HEK293 cells
# Assay: Preliminary screening as DNA vectors, GFP transfection of HEK293 cells
# Type: cell-based
# Conditions: amino lipid/DOPE liposome with 75 ng plasmid DNA (psin-EGFP-IRES-Puro); number of GFP-expressing cells divided by total nuclei (Hoechst)
# How it was run: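 HEK293 cells in DMEM/10% FBS transfected with 75 ng EGFP plasmid per well complexed with amino lipid/DOPE liposomes in pH 5.6 sodium acetate. Hoechst nuclear stain added 20-24 h post-transfection, then cells cultured another 20-24 h. Confocal imaging gives GFP-positive cells as % of total nuclei.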
row,SMILES,Absolute DNA transfection efficiency in HEK293 cells [%]
1,CCCCCCCCCCCCN(CCCCCCCCCCCC)c1nc(NCCN(C)C)nc(SCCCCCCC)n1 [S7^2N12 D1],0.2
2,CCCCCCCCCCCNc1nc(NCCN(CC)CC)nc(SCCCCCCCCCCC)n1 [S11N11 D7],6.8
3,CCCCCCCCCCCCSc1nc(NCCN(CC)CC)nc(N(CCCCCCCCCCCC)CCCCCCCCCCCC)n1 [S12^2N12 D7],0.1
4,CCCCCCCCCCSc1nc(NCCN2CCCC2)nc(SCCCCCC)n1 [S6S10 D3],4.4
5,CCCCCCCCCCCCSc1nc(NCCCN2CCOCC2)nc(SCCCCCC)n1 [S6S12 D8],7.5
6,CCCCCCCCCCCCCNc1nc(NCCN2CCCC2)nc(SCCCCCCCCCCCC)n1 [S12N13 D3],3.6
7,CCCCCCCCCCCCCCCCCCNc1nc(NCC2CCN(C)CC2)nc(SCCCCCC)n1 [S6N18 D10],13.0
8,CCCCCCCCCCCCSc1nc(NCCCCCCCCC)nc(NCCN2CCCCC2)n1 [S12N9 D4],0.1
9,CCCCCCCCCCCCCCCSc1nc(NCCCCCCC)nc(NCCN(C)C)n1 [S15N7 D1],18.2
10,CCCCCCCCCCCCSc1nc(NCCN2CCCC2)nc(N(CCCCCCCCCCCC)CCCCCCCCCCCC)n1 [S12^2N12 D3],0.0
11,CCCCCCCCSc1nc(NCCCCCCC)nc(NCCN2CCN(C)CC2)n1 [S8N7 D5],3.6
12,CCCCCCCCCSc1nc(NCCN2CCN(C)CC2)nc(SCCCCCCCC)n1 [S8S9 D5],5.8
13,CCCCCCCCCCCCNc1nc(NCCCN2CCN(C)CC2)nc(SCCCCCCCCCC)n1 [S10N12 D9],3.6
14,CCCCCCCCCCCSc1nc(NCCN2CCCC2)nc(SCCCCCCCC)n1 [S8S11 D3],6.1
15,CCCCCCCCCCCCCNc1nc(NCCCN2CCN(C)CC2)nc(SCCCCCCCC)n1 [S8N13 D9],27.9
16,CCCCCCCCCCCCCCCSc1nc(NCCCN2CCOCC2)nc(N(CCCCCCCCCCCC)CCCCCCCCCCCC)n1 [S15^2N12 D8],0.0
17,CCCCCCCCCCCCCCCCCCNc1nc(NCCN2CCCC2)nc(SCCCCCC)n1 [S6N18 D3],21.9
18,CCCCCCCCCCCCCCCSc1nc(NCCN(C)C)nc(SCCCCCCC)n1 [S7S15 D1],9.4
19,CCCCCCCCCCCCN(CCCCCCCCCCCC)c1nc(NCCN2CCN(C)CC2)nc(SCCCCCC)n1 [S6^2N12 D5],0.0
20,CCCCCCCCCCCCCCCCCCNc1nc(NCCN2CCOCC2)nc(SCCCCCCC)n1 [S7N18 D2],16.6
21,CCCCCCCCCCCCCCCCCCNc1nc(NCCN(C)C)nc(SCCCCCCCCCCCCCC)n1 [S14N18 D1],0.9
22,CCCCCCCCCCCCN(CCCCCCCCCCCC)c1nc(NCCCN2CCN(C)CC2)nc(SCCCCCCCCC)n1 [S9^2N12 D9],0.6
23,CCCCCCCCCCCCSc1nc(NCCN(C)C)nc(SCCCCCCCC)n1 [S8S12 D1],10.7
24,CCCCCCCCCCCCCCCCCCNc1nc(NCCN2CCCC2)nc(SCCCCCCCCCCC)n1 [S11N18 D3],32.1

row,SMILES,Absolute DNA transfection efficiency in HEK293 cells [%]
1,CCCCCCCCCCCCCCCSc1nc(NCCCCCCCC)nc(NCCN2CCOCC2)n1 [S15N8 D2],19.3
2,CCCCCCCCCCCCCCCCCCNc1nc(NCCN2CCCCC2)nc(SCCCCCCCCCCCCCCCCCC)n1 [S18N18 D4],0.0
3,CCCCCCCCCSc1nc(NCCCCCC)nc(NCCN2CCCC2)n1 [S9N6 D3],27.0
4,CCCCCCCCCSc1nc(NCCN2CCN(C)CC2)nc(SCCCCCCC)n1 [S7S9 D5],12.5
5,CCCCCCCCCCCCCCCCCCSc1nc(NCCCCCCCCCCCCCCC)nc(NCC2CCN(C)CC2)n1 [S18N15 D10],0.2
6,CCCCCCCCCSc1nc(NCCCN(C)C)nc(SCCCCCCC)n1 [S7S9 D6],3.4
7,CCCCCCCCCCCCCCCSc1nc(NCCCCCCC)nc(NCCCN(C)C)n1 [S15N7 D6],32.1
8,CCCCCCCCCCCCCCCSc1nc(NCCCN(C)C)nc(SCCCCCC)n1 [S6S15 D6],36.4
9,CCCCCCCCCCCCSc1nc(NCCCCCC)nc(NCCN(CC)CC)n1 [S12N6 D7],6.5
10,CCCCCCCCCCCCSc1nc(NCCCCCC)nc(NCCCN2CCOCC2)n1 [S12N6 D8],0.1
11,CCCCCCCCCCCCCCCSc1nc(NCCCCCCC)nc(NCC2CCN(C)CC2)n1 [S15N7 D10],33.4
12,CCCCCCCCCCCNc1nc(NCCN2CCN(C)CC2)nc(SCCCCCCCCC)n1 [S9N11 D5],45.0
13,CCCCCCCCCCCCCCCCCCNc1nc(NCCCN2CCOCC2)nc(SCCCCCCCCCCCCCC)n1 [S14N18 D8],0.1
14,CCCCCCCCCCCCCCCCCCNc1nc(NCCN2CCN(C)CC2)nc(SCCCCCCCCCCCCCC)n1 [S14N18 D5],0.6
15,CCCCCCCCCCCCCCCCCCSc1nc(NCCCN2CCN(C)CC2)nc(N(CCCCCCCCCCCC)CCCCCCCCCCCC)n1 [S18^2N12 D9],0.0
16,CCCCCCCCCCCCN(CCCCCCCCCCCC)c1nc(NCCN(CC)CC)nc(SCCCCCCC)n1 [S7^2N12 D7],0.2
17,CCCCCCCCCCCCCCCSc1nc(NCCCCCCC)nc(NCCN2CCN(C)CC2)n1 [S15N7 D5],12.9
18,CCCCCCCCCCCCCCCNc1nc(NCCN2CCOCC2)nc(SCCCCCCC)n1 [S7N15 D2],14.1
19,CCCCCCCCCCCCCCCCCCSc1nc(NCCN2CCN(C)CC2)nc(N(CCCCCCCCCCCC)CCCCCCCCCCCC)n1 [S18^2N12 D5],0.0
20,CCCCCCCCCCCCCCCCNc1nc(NCCN2CCCCC2)nc(SCCCCCC)n1 [S6N16 D4],2.4
21,CCCCCCCCCCSc1nc(NCCCCCCCCC)nc(NCCN2CCOCC2)n1 [S10N9 D2],3.7
22,CCCCCCCCCCCCCNc1nc(NCCCN2CCOCC2)nc(SCCCCCCCCCCCC)n1 [S12N13 D8],0.0
23,CCCCCCCCCCCCCCCCSc1nc(NCCCCCC)nc(NCCN2CCN(C)CC2)n1 [S16N6 D5],18.7
24,CCCCCCCCCCCCCCCCCCSc1nc(NCCCCCCCCCCCC)nc(NCCN(C)C)n1 [S18N12 D1],1.3

row,SMILES,Absolute DNA transfection efficiency in HEK293 cells [%]
1,CCCCCCCCSc1nc(NCCCN2CCOCC2)nc(SCCCCCCCC)n1 [S8S8 D8],13.8
2,CCCCCCCCCCCCCCCCCCNc1nc(NCCN(CC)CC)nc(SCCCCCCCCCC)n1 [S10N18 D7],4.0
3,CCCCCCCCCCCCCCCCSc1nc(NCCCN2CCOCC2)nc(SCCCCCCC)n1 [S7S16 D8],12.8
4,CCCCCCCCCCCCNc1nc(NCCN2CCCC2)nc(SCCCCCCCCCCCC)n1 [S12N12 D3],31.4
5,CCCCCCCCCCCCNc1nc(NCCCN(C)C)nc(SCCCCCCCCCCCC)n1 [S12N12 D6],9.1
6,CCCCCCCCCCCCCCCCCCSc1nc(NCCCCCCCCCCCCCCCC)nc(NCCN(CC)CC)n1 [S18N16 D7],0.0
7,CCCCCCNc1nc(NCCN2CCCC2)nc(SCCCCCC)n1 [S6N6 D3],0.0
8,CCCCCCCCCCCCNc1nc(NCCN2CCCC2)nc(SCCCCCCCCC)n1 [S9N12 D3],47.3
9,CCCCCCCCCCCCCCCCSc1nc(NCCCN2CCN(C)CC2)nc(SCCCCCC)n1 [S6S16 D9],3.9
10,CCCCCCCCCCCNc1nc(NCCN2CCCCC2)nc(SCCCCCCC)n1 [S7N11 D4],6.9
11,CCCCCCCCCCCCCCCSc1nc(NCCCCCCCCCCC)nc(NCC2CCN(C)CC2)n1 [S15N11 D10],16.6
12,CCCCCCCCCCCCCCCCSc1nc(NCCCCCCCCCCC)nc(NCCN2CCN(C)CC2)n1 [S16N11 D5],9.5
13,CCCCCCCCCCCCCCCCSc1nc(NCCCCCCC)nc(NCCN2CCN(C)CC2)n1 [S16N7 D5],10.1
14,CCCCCCCCSc1nc(NCCN(C)C)nc(SCCCCCCCC)n1 [S8S8 D1],17.9
15,CCCCCCCCCCCCCCCCCCNc1nc(NCC2CCN(C)CC2)nc(SCCCCCCCCCCCCCCC)n1 [S15N18 D10],1.2
16,CCCCCCCCSc1nc(NCCCCCC)nc(NCCN(C)C)n1 [S8N6 D1],3.4
17,CCCCCCCCCCCCCCCCSc1nc(NCCN2CCCC2)nc(SCCCCCCC)n1 [S7S16 D3],6.3
18,CCCCCCCCCCCNc1nc(NCCN2CCCC2)nc(SCCCCCCCC)n1 [S8N11 D3],52.0
19,CCCCCCCCCCCSc1nc(NCCCN2CCN(C)CC2)nc(SCCCCCC)n1 [S6S11 D9],16.8
20,CCCCCCCCCCCCCNc1nc(NCCCN2CCOCC2)nc(SCCCCCCCCC)n1 [S9N13 D8],11.3
21,CCCCCCCCCCCCCCSc1nc(NCCCCCCCC)nc(NCCN2CCCCC2)n1 [S14N8 D4],2.6
22,CCCCCCCCCCCCCCSc1nc(NCCN2CCN(C)CC2)nc(N(CCCCCCCCCCCC)CCCCCCCCCCCC)n1 [S14^2N12 D5],0.0
23,CCCCCCCCCCCCCCSc1nc(NCCN2CCCCC2)nc(N(CCCCCCCCCCCC)CCCCCCCCCCCC)n1 [S14^2N12 D4],0.0
